For one assay, the system named is Ca2^+ and Na+ overload. Particulars: preclinical; Chahine et al. doi: 10.1016/j.yjmcc.2005.01.003; Bkaily and Jacques doi: 10.1139/cjpp-2017-0265; cited from earlier work.
The test system of assay [1] is isolated rat soleus muscle. The assay is described as follows: Ex vivo model of residual muscle force (fatigue) in isolated rat soleus muscle after sodium overload by high NaCl (200 mM) buffer. The settings on record: for residual contractile force compared with baseline control: drug concentrations of 30 to 500 nM, added 10 min before 30 min in 200 mM NaCl buffer, then stimulation in physiological NaCl buffer, 30 °C, pH 7.4, controls without inhibitor 10% to 20%; for effect on rat soleus muscle force decline: high NaCl (200 mM) protocol, result in words. Set-up: species or system rat (female Sprague Dawley). An excerpt:
The claim of this patent is that NHE1 inhibitors can improve disturbed body function and symptoms of ME/CFS, as an example of diseases associated with chronic fatigue (DACF). Muscular fatigue and loss of force (e.g., loss of handgrip strength) is a hallmark in ME/CFS patients. A main target of NHE1 inhibition is the skeletal muscle whose energetic function is deeply disturbed in ME/CFS and which is presumed to be very important in the symptomatology of ME/CFS. NHE1 activity plays a key role in the development of the disturbances by a rise in intramuscular sodium that finally leads to calcium overload. The latter causes a deep functional energetic disturbance or damage. The isolated rat muscle either soleus muscle or extensor digitorum longus muscle is a well-characterized and well-validated model for the study of the function of ion exchangers. The isolated rat soleus muscle is particularly appropriate for experiments ex vivo as it is very thin so that there is no need for blood supply. […] In this experimental setting, a high NaCl concentration buffer causes sodium influx to disturb and decrease excitability and to disturb calcium homeostasis to subsequently reduce muscle force. Inhibition of the NHE1, which exchanges one proton for the uptake of one sodium ion, reduces sodium entry and overload. Prevention or diminution of a loss of muscular force in this procedure indicates effective inhibition of NHE1 by a test compound with the described mode of action of NHE1-inhibition.
The decline in force in the soleus muscle can be considered as muscular fatigue and related to the loss of hand grip muscular strength in ME/CFS patients. The described ex vivo model is suited for testing the effect of NHE1 inhibitors and in particular their effect on force generation disturbed by mechanisms that worsen excitability or the energetic situation or calcium homeostasis via the sodium-calcium-exchanger. High NaCl in a buffer (200 mM) is used to cause intracellular sodium loading leading to a decline in contractile force.
The resulting decline in muscular force is considered as muscular fatigue. In the absence of electrical stimulation avoiding sodium entry by sodium channels the sodium influx during high NaCl exposure is due to the NHE1. Inhibition of NHE1 can prevent sodium overload and a decline in muscular force and fatigue.
Muscle preparation and incubation: Female Sprague Dawley rats of 5 weeks of age are used. After isoflurane anesthesia and cervical dislocation the intact soleus muscles of the animals is dissected. […]
Force measurement: The experimental set-up for force measurements allows for the simultaneous recordings from 6 muscles in separate incubation chambers in parallel. Force is recorded and stored with a Notocord HEM data acquisition system. […]

Assay [2] has as its system myocardial infarction and dystrophic cardiomyopathy including DMD. Particulars: animal models; Ghaleh et al. doi: 10.1016/j.ijcard.2020.03.031; cited from earlier work.

In the case of `CC(C)c1ccc(C(=O)NC(=N)N)cc1S(C)(=O)=O` [Cariporide], in the assay with Ca2^+ and Na+ overload, the “effect in preventing the deleterious effects of Ca2^+ and Na+ overload” value is recorded as “beneficial effects”. Besides, in assay [1], the “residual contractile force compared with baseline control” value was 50-70% and the “effect on rat soleus muscle force decline” value is listed as “diminished the loss of force”. Also, the cardioprotective effects entry in assay [2] is “cardioprotective effects”.
With `Cc1cc(S(C)(=O)=O)c(S(C)(=O)=O)cc1C(=O)N=C(N)N` [Rimeporide, N-(4,5-bismethanesulfonyl-2-methylbenzoyl)guanidine], the “effect in preventing the deleterious effects of Ca2^+ and Na+ overload” value in the assay on Ca2^+ and Na+ overload is “beneficial effects”. For the same compound, in assay [1], the “residual contractile force compared with baseline control” value is recorded as 50-70% and the “effect on rat soleus muscle force decline” value is given as “diminished the loss of force”. Moreover, the cardioprotective effects result in assay [2] is on record as “cardioprotective effects”.

The values above are taken from patent US20260345530A1, “Use of a Therapeutic Agent with Sodium-Hydrogen Antiporter 1 Inhibitory Activity for the Treatment and Prevention of Diseases Associated with Chronic Fatigue, Exhaustion and/or Exertional Intolerance” (MITODICURE GMBH, priority 2022, published 2026).
